Source: patent publication US20240287138A1, “CYCLIC PEPTIDES FOR INHIBITING TNF RECEPTOR 1 ACTIVITY” (Merck Sharp & Dohme LLC, priority 2023, published 2024)
Numbered stars: 1 amine (or outer) side, 2 acyl side, 3 side chain; on linkers, the order of the positions; unused ones are H or OH. Bridge positions count the residues as written; N and C are the ends. Square brackets hold non-standard residues; d marks the D form. Peptide text beside a SMILES is read from it. Trp(βS-Me,7-OMe) = COc1cccc2c([C@H](C)[C@H](N)C(=O)O)c[nH]c12; Ala(1-bicyclo(1.1.1)pentyl) = N[C@@H](CC12CC(C1)C2)C(=O)O; Achc(cis-1,4) = O=C([C@H]1CC[C@@H](N[*:1])CC1)[*:2]; Trp(4-Cl) = N[C@@H](Cc1c[nH]c2cccc(Cl)c12)C(=O)O; Trp(7-Cl) = N[C@@H](Cc1c[nH]c2c(Cl)cccc12)C(=O)O; X15 = C[C@H](c1ccc(O)cc1)[C@H](N[*:1])C(=O)[*:2]; Phe(4-CONH2) = NC(=O)c1ccc(C[C@H](N)C(=O)O)cc1; Phe(4-COOH) = N[C@@H](Cc1ccc(C(=O)O)cc1)C(=O)O; Trp(7-aza) = N[C@@H](Cc1c[nH]c2ncccc12)C(=O)O; Phe(4-CH2NH2) = NCc1ccc(C[C@H](N)C(=O)O)cc1; Pip(5R-OH) = O=C(O)[C@@H]1CC[C@@H](O)CN1; αMeW = C[C@](N)(Cc1c[nH]c2ccccc12)C(=O)O; X1 = O=C([C@@H]1CC[C@H](N[*:1])C1)[*:2]; 2Nal = N[C@@H](Cc1ccc2ccccc2c1)C(=O)O; Pip(4-aza) = O=C(O)[C@@H]1CNCCN1; hPhe = N[C@@H](CCc1ccccc1)C(=O)O; 3Pal = N[C@@H](Cc1cccnc1)C(=O)O; 4Pal = N[C@@H](Cc1ccncc1)C(=O)O; NMeE = CN[C@@H](CCC(=O)O)C(=O)O; NMeDab = CN[C@@H](CCN)C(=O)O; Dap(Me) = CNC[C@H](N)C(=O)O; NEtAla = CCN[C@@H](C)C(=O)O; αMeS = C[C@](N)(CO)C(=O)O; Nle = CCCC[C@H](N)C(=O)O; Dap = NC[C@H](N)C(=O)O; Sar = CNCC(=O)O

Each compound was assayed against T1, TNFα-induced NF-κB signal transduction pathway (TNFR1 signaling) in THP-1 cells (Homo sapiens, UniProt P19438) (assay: THP-1 Lucia NF-κB reporter cell assay, inhibition of TNFα-induced NF-κB signaling). Details: THP-1 NF-κB Lucia reporter cells, 10 ng/mL TNFα, 16-18 h, secreted luciferase; read-out: THP-1 IC50.
T1 sequence (P19438 30-455): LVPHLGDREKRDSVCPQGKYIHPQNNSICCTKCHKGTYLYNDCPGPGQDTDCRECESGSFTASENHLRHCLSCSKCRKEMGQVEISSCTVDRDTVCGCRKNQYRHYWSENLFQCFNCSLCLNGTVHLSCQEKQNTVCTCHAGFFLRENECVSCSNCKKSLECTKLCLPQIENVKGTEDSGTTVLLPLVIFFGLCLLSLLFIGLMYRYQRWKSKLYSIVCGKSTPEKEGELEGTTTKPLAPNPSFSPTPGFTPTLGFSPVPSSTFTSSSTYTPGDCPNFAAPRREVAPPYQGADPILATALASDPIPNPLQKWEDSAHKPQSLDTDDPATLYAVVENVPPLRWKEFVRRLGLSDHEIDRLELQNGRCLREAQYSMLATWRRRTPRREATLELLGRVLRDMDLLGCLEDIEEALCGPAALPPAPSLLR
Assay type: cell-based
Procedure, shortened: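 Inhibition of TNFR1-driven NF-κB activation was measured as luminescence of secreted reporter luciferase following overnight (16-18 h) stimulation with 10 ng/mL TNFα.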

Compared with `CCCC[C@@H]1NC(=O)[C@@H]2CC[C@@H](C2)NC(=O)[C@H]([C@@H](C)c2c[nH]c3c(OC)cccc23)NC(=O)CN(C)C(=O)[C@H](Cc2ccc(C(N)=O)cc2)NC(=O)[C@H](Cc2ccc(C(N)=O)cc2)NC(=O)[C@](C)(CO)NC(=O)[C@H](Cc2c[nH]c3c(Cl)cccc23)NC(=O)[C@H](Cc2ccncc2)NC(=O)[C@H](CC(N)=O)NC(=O)[C@H](CCC(=O)O)N(C)C(=O)[C@H](Cc2c[nH]c3ccccc23)NC(=O)[C@@H]2CC[C@@H](O)CN2C(=O)[C@H](Cc2ccncc2)NC1=O` [SEQ ID NO. 229] (cyclo([4Pal][Trp(7-Cl)][αMeS][Phe(4-CONH2)][Phe(4-CONH2)][Sar][Trp(βS-Me,7-OMe)][X1][Nle][4Pal][Pip(5R-OH)]W[NMeE]N)), `CCCC[C@@H]1NC(=O)[C@@H]2CC[C@@H](C2)NC(=O)[C@H]([C@@H](C)c2c[nH]c3c(OC)cccc23)NC(=O)CN(C)C(=O)[C@H](Cc2ccc(OC)cc2)NC(=O)[C@H](Cc2ccc(C(=O)O)cc2)NC(=O)[C@](C)(CO)NC(=O)[C@H](Cc2c[nH]c3c(Cl)cccc23)NC(=O)[C@H](Cc2ccc(C(N)=O)cc2)NC(=O)[C@H](CCC(N)=O)NC(=O)[C@H](CCC(=O)O)N(C)C(=O)[C@H](Cc2c[nH]c3ccccc23)NC(=O)[C@@H]2CNCCN2C(=O)[C@H](Cc2ccncc2)NC1=O` [SEQ ID NO. 240] (cyclo([4Pal][Pip(4-aza)]W[NMeE]Q[Phe(4-CONH2)][Trp(7-Cl)][αMeS][Phe(4-COOH)]Y(Me)[Sar][Trp(βS-Me,7-OMe)][X1][Nle])) is 2-fold higher in IC50: 0.5 nM for the first, 1 nM for the second.

`CCCC[C@@H]1NC(=O)CSC[C@@H](C(N)=O)NC(=O)[C@](C)(Cc2c[nH]c3ccccc23)NC(=O)CN(C)C(=O)[C@H](Cc2ccc(O)cc2)NC(=O)[C@H](Cc2ccc(C(=O)O)cc2)NC(=O)[C@](C)(CO)NC(=O)[C@H](Cc2c[nH]c3c(Cl)cccc23)NC(=O)[C@H](Cc2ccncc2)NC(=O)[C@H](CC(N)=O)NC(=O)[C@H](CCC(=O)O)N(C)C(=O)[C@H](Cc2c[nH]c3ncccc23)NC(=O)[C@H](CCN)N(C)C(=O)[C@H](Cc2ccncc2)NC1=O` [SEQ ID NO. 231] ({CH2CO}-[Nle][4Pal][NMeDab][Trp(7-aza)][NMeE]N[4Pal][Trp(7-Cl)][αMeS][Phe(4-COOH)]Y[Sar][αMeW]C-NH2; thioether N-14) and `CCCC[C@@H]1NC(=O)CSC[C@@H](C(N)=O)NC(=O)[C@](C)(Cc2c[nH]c3ccccc23)NC(=O)CN(C)C(=O)[C@H](Cc2ccc(O)cc2)NC(=O)[C@H](Cc2ccc(C(=O)O)cc2)NC(=O)[C@](C)(CO)NC(=O)[C@H](Cc2c[nH]c3c(Cl)cccc23)NC(=O)[C@H](Cc2ccncc2)NC(=O)[C@H](CC(N)=O)NC(=O)[C@H](CCC(=O)O)N(C)C(=O)[C@H](Cc2c[nH]c3ncccc23)NC(=O)[C@H](CNC)NC(=O)[C@H](Cc2ccncc2)NC1=O` [SEQ ID NO. 235] ({CH2CO}-[Nle][4Pal][Dap(Me)][Trp(7-aza)][NMeE]N[4Pal][Trp(7-Cl)][αMeS][Phe(4-COOH)]Y[Sar][αMeW]C-NH2; thioether N-14) are within 1.5-fold of each other in IC50: 6.1 nM for the first, 5 nM for the second.

Compared with `CCN1C(=O)[C@H](Cc2c[nH]c3c(Cl)cccc23)NC(=O)[C@H](CO)NC(=O)[C@H](Cc2ccncc2)NC(=O)[C@H](CC23CC(C2)C3)NC(=O)CSC[C@@H](C(N)=O)NC(=O)[C@H](Cc2c[nH]c3ncccc23)NC(=O)CN(C)C(=O)[C@H](Cc2ccc(O)cc2)NC(=O)[C@H](Cc2ccc(C(=O)O)cc2)NC(=O)[C@](C)(CO)NC(=O)[C@H](Cc2c[nH]c3ncccc23)NC(=O)[C@H](Cc2ccc(C(=O)O)cc2)NC(=O)[C@H](CC(N)=O)NC(=O)[C@@H]1C` [SEQ ID NO. 232] ({CH2CO}-[Ala(1-bicyclo(1.1.1)pentyl)][4Pal]S[Trp(7-Cl)][NEtAla]N[Phe(4-COOH)][Trp(7-aza)][αMeS][Phe(4-COOH)]Y[Sar][Trp(7-aza)]C-NH2; thioether N-14), `CN1CC(=O)N[C@@H](Cc2c[nH]c3cccc(Cl)c23)C(=O)N[C@H](C(N)=O)CSCC(=O)N[C@@H](CCC(N)=O)C(=O)N[C@@H](Cc2ccncc2)C(=O)N[C@@H](CO)C(=O)N[C@@H](Cc2c[nH]c3ncccc23)C(=O)N(C)[C@@H](CCC(=O)O)C(=O)N[C@@H](CC(N)=O)C(=O)N[C@@H](Cc2ccncc2)C(=O)N[C@@H](Cc2c[nH]c3c(Cl)cccc23)C(=O)N[C@@](C)(CO)C(=O)N[C@@H](Cc2ccc(C(=O)O)cc2)C(=O)N[C@@H](Cc2ccc(O)cc2)C1=O` [SEQ ID NO. 239] ({CH2CO}-Q[4Pal]S[Trp(7-aza)][NMeE]N[4Pal][Trp(7-Cl)][αMeS][Phe(4-COOH)]Y[Sar][Trp(4-Cl)]C-NH2; thioether N-14) is 4.5-fold lower in IC50: 6.3 nM for the first, 1.4 nM for the second. The second is the more potent here.

Going from `CN1CC(=O)N[C@@H](Cc2c[nH]c3ccccc23)C(=O)N[C@H](C(N)=O)CSCC(=O)N[C@@H](CCc2ccccc2)C(=O)N[C@@H](Cc2ccncc2)C(=O)N[C@@H](CN)C(=O)N[C@@H](Cc2c[nH]c3ccccc23)C(=O)N2CCC[C@@H]2C(=O)N[C@@H](CC(N)=O)C(=O)N[C@@H](Cc2ccncc2)C(=O)N[C@@H](Cc2ccc3ccccc3c2)C(=O)N[C@@](C)(CO)C(=O)N[C@@H](Cc2ccc(C(=O)O)cc2)C(=O)N[C@@H](Cc2cccnc2)C1=O` [SEQ ID NO. 233] ({CH2CO}-[hPhe][4Pal][Dap]W[dP]N[4Pal][2Nal][αMeS][Phe(4-COOH)][3Pal][Sar]WC-NH2; thioether N-14) to `CN1CC(=O)N[C@@H](Cc2c[nH]c3ccccc23)C(=O)N[C@H](C(N)=O)CSCC(=O)N[C@@H](CCCCN)C(=O)N[C@@H](Cc2ccc(O)cc2)C(=O)N[C@@H](CO)C(=O)N[C@@H](Cc2c[nH]c3ccccc23)C(=O)N2CCC[C@@H]2C(=O)N[C@@H](CCC(N)=O)C(=O)N[C@@H](Cc2ccncc2)C(=O)N[C@@H](Cc2c[nH]c3ccccc23)C(=O)N[C@@](C)(CO)C(=O)N[C@@H](Cc2ccc(C(=O)O)cc2)C(=O)N[C@@H](Cc2ccc(O)cc2)C1=O` [SEQ ID NO. 242] ({CH2CO}-KYSW[dP]Q[4Pal]W[αMeS][Phe(4-COOH)]Y[Sar]WC-NH2; thioether N-14), the IC50 falls from 14.2 nM to 3 nM (4.7-fold). The second is the more potent here.

`CCCC[C@@H]1NC(=O)CSC[C@@H](C(N)=O)NC(=O)[C@H]([C@@H](C)c2c[nH]c3c(OC)cccc23)NC(=O)CN(C)C(=O)[C@H](Cc2ccc(O)cc2)NC(=O)[C@H](Cc2ccc(C(=O)O)cc2)NC(=O)[C@](C)(CO)NC(=O)[C@H](Cc2c[nH]c3c(Cl)cccc23)NC(=O)[C@H](Cc2ccncc2)NC(=O)[C@H](CC(N)=O)NC(=O)[C@H](CCC(=O)O)N(C)C(=O)[C@H](Cc2c[nH]c3ncccc23)NC(=O)[C@H](CO)NC(=O)[C@H]([C@H](C)c2ccc(O)cc2)NC1=O` [SEQ ID NO. 243] ({CH2CO}-[Nle][X15]S[Trp(7-aza)][NMeE]N[4Pal][Trp(7-Cl)][αMeS][Phe(4-COOH)]Y[Sar][Trp(βS-Me,7-OMe)]C-NH2; thioether N-14) and `CCCC[C@@H]1NC(=O)[C@H]2CC[C@H](CC2)NC(=O)[C@H]([C@@H](C)c2c[nH]c3c(OC)cccc23)NC(=O)CN(C)C(=O)[C@H](Cc2ccc(O)cc2)NC(=O)[C@H](Cc2ccc(C(=O)O)cc2)NC(=O)[C@](C)(CO)NC(=O)[C@H](Cc2c[nH]c3c(Cl)cccc23)NC(=O)[C@H](Cc2ccncc2)NC(=O)[C@H](CC(N)=O)NC(=O)[C@H](CCC(=O)O)N(C)C(=O)[C@H](Cc2c[nH]c3ccccc23)NC(=O)[C@H](CO)NC(=O)[C@H](Cc2ccc(CN)cc2)NC1=O` [SEQ ID NO. 244] (cyclo([4Pal][Trp(7-Cl)][αMeS][Phe(4-COOH)]Y[Sar][Trp(βS-Me,7-OMe)][Achc(cis-1,4)][Nle][Phe(4-CH2NH2)]SW[NMeE]N)) are within 1.5-fold of each other in IC50: 3.2 nM for the first, 4.5 nM for the second.
